ChEMBL document CHEMBL4414613, “Antibacterial 5α-Spirostane Saponins from the Fruit of Cordyline manners-suttoniae” (J Nat Prod, 2019)
In brackets after ≈: the same amount, converted by molar mass. Activity calls are given as the source filed them. No cut-off for these calls is given here.

Experiments:
[1] = system: Staphylococcus aureus; assay: Antibacterial activity against Staphylococcus aureus ATCC 29247 incubated for 24 hrs by microdilution assay; type: functional
[2] = system: Staphylococcus aureus; assay: Antibacterial activity against Staphylococcus aureus ATCC 25923 incubated for 24 hrs by microdilution assay; type: functional
[3] = system: Enterococcus faecium; assay: Antibacterial activity against Enterococcus faecium ATCC 35667 incubated for 24 hrs by microdilution assay; type: functional
[4] = system: Enterococcus faecium; assay: Antibacterial activity against Enterococcus faecium C15 incubated for 24 hrs by microdilution assay; type: functional
[5] = system: Staphylococcus aureus; assay: Bactericidal activity against Staphylococcus aureus ATCC 29247 at 90 uM incubated for 24 hrs by microdilution assay; type: functional, organism-based
[6] = system: Staphylococcus aureus; assay: Bactericidal activity against Staphylococcus aureus ATCC 25923 at 90 uM incubated for 24 hrs by microdilution assay; type: functional, organism-based
[7] = system: Enterococcus faecium; assay: Bactericidal activity against Enterococcus faecium ATCC 35667 at 90 uM incubated for 24 hrs by microdilution assay; type: functional, organism-based
[8] = system: Enterococcus faecium; assay: Bactericidal activity against Enterococcus faecium C15 at 90 uM incubated for 24 hrs by microdilution assay; type: functional, organism-based
[9] = system: HaCaT; assay: Cytotoxicity against human HaCaT cells assessed as reduction in cell viability incubated for 4 days by CellTiter 96 aqueous one solution assay; type: cell-based; conditions: 96 h
[10] = system: NHDF; assay: Cytotoxicity against human HDF cells assessed as reduction in cell viability incubated for 7 days by CellTiter 96 aqueous one solution assay; type: functional, cell-based; conditions: 168 h
[11] = system: Klebsiella pneumoniae; assay: Antibacterial activity against Klebsiella pneumoniae ATCC 13883 at 90 uM incubated for 24 hrs by microdilution assay; type: functional, organism-based
[12] = system: Klebsiella pneumoniae; assay: Antibacterial activity against Klebsiella pneumoniae ATCC 12657 at 90 uM incubated for 24 hrs by microdilution assay; type: functional, organism-based
[13] = system: Acinetobacter baumannii; assay: Antibacterial activity against Acinetobacter baumannii ATCC 19606 at 90 uM incubated for 24 hrs by microdilution assay; type: functional, organism-based; conditions: ATCC 19606 = CIP 70.34 = JCM 6841
[14] = system: Acinetobacter baumannii; assay: Antibacterial activity against Acinetobacter baumannii ATCC 17978 at 90 uM incubated for 24 hrs by microdilution assay; type: functional, organism-based
[15] = system: Pseudomonas aeruginosa; assay: Antibacterial activity against Pseudomonas aeruginosa ATCC 10145 at 90 uM incubated for 24 hrs by microdilution assay; type: functional, organism-based
[16] = system: Pseudomonas aeruginosa; assay: Antibacterial activity against Pseudomonas aeruginosa ATCC 49189 at 90 uM incubated for 24 hrs by microdilution assay; type: functional, organism-based
[17] = system: Enterobacter cloacae subsp. cloacae; assay: Antibacterial activity against Enterobacter cloacae ATCC 13047 at 90 uM incubated for 24 hrs by microdilution assay; type: functional
[18] = system: Klebsiella aerogenes; assay: Antibacterial activity against Enterobacter aerogenes ATCC 13048 at 90 uM incubated for 24 hrs by microdilution assay; type: functional
[19] = system: Klebsiella pneumoniae; assay: Bactericidal activity against Klebsiella pneumoniae ATCC 13883 at 90 uM incubated for 24 hrs by microdilution assay; type: functional, organism-based
[20] = system: Klebsiella pneumoniae; assay: Bactericidal activity against Klebsiella pneumoniae ATCC 12657 at 90 uM incubated for 24 hrs by microdilution assay; type: functional, organism-based
[21] = system: Acinetobacter baumannii; assay: Bactericidal activity against Acinetobacter baumannii ATCC 19606 at 90 uM incubated for 24 hrs by microdilution assay; type: functional, organism-based; conditions: ATCC 19606 = CIP 70.34 = JCM 6841
[22] = system: Acinetobacter baumannii; assay: Bactericidal activity against Acinetobacter baumannii ATCC 17978 at 90 uM incubated for 24 hrs by microdilution assay; type: functional, organism-based
[23] = system: Pseudomonas aeruginosa; assay: Bactericidal activity against Pseudomonas aeruginosa ATCC 10145 at 90 uM incubated for 24 hrs by microdilution assay; type: functional, organism-based
[24] = system: Pseudomonas aeruginosa; assay: Bactericidal activity against Pseudomonas aeruginosa ATCC 49189 at 90 uM incubated for 24 hrs by microdilution assay; type: functional, organism-based
[25] = system: Enterobacter cloacae subsp. cloacae; assay: Bactericidal activity against Enterobacter cloacae ATCC 13047 at 90 uM incubated for 24 hrs by microdilution assay; type: functional
[26] = system: Klebsiella aerogenes; assay: Bactericidal activity against Enterobacter aerogenes ATCC 13048 at 90 uM incubated for 24 hrs by microdilution assay; type: functional
[27] = Selectivity ratio of IC50 for human HaCaT cells to IC50 for human HDF cells by CellTiter 96 aqueous one solution assay
[28] = system: Staphylococcus aureus; assay: Bactericidal activity against Staphylococcus aureus ATCC 29247 up to 86.8 uM incubated for 24 hrs by microdilution assay; type: functional, organism-based
[29] = system: Staphylococcus aureus; assay: Bactericidal activity against Staphylococcus aureus ATCC 25923 up to 86.8 uM incubated for 24 hrs by microdilution assay; type: functional, organism-based
[30] = system: Enterococcus faecium; assay: Bactericidal activity against Enterococcus faecium ATCC 35667 up to 86.8 uM incubated for 24 hrs by microdilution assay; type: functional, organism-based
[31] = system: Enterococcus faecium; assay: Bactericidal activity against Enterococcus faecium C15 up to 86.8 uM incubated for 24 hrs by microdilution assay; type: functional, organism-based
[32] = system: Staphylococcus aureus; assay: Bactericidal activity against Staphylococcus aureus ATCC 29247 incubated for 24 hrs by microdilution assay; type: functional; conditions: ATCC 29247, 24 h
[33] = system: Staphylococcus aureus; assay: Bactericidal activity against Staphylococcus aureus ATCC 25923 incubated for 24 hrs by microdilution assay; type: functional; conditions: ATCC 25923, 24 h
[34] = system: Enterococcus faecium; assay: Bactericidal activity against Enterococcus faecium ATCC 35667 incubated for 24 hrs by microdilution assay; type: functional; conditions: ATCC 35667, 24 h
[35] = system: Enterococcus faecium; assay: Bactericidal activity against Enterococcus faecium C15 incubated for 24 hrs by microdilution assay; type: functional; conditions: C15, 24 h

C=C1CC[C@]2(OC1)O[C@H]1C[C@H]3[C@@H]4CC[C@H]5C[C@@H](O)C[C@@H](O[C@@H]6O[C@H](C)[C@H](O)[C@H](O)[C@H]6O)[C@]5(C)[C@H]4CC[C@]3(C)[C@H]1[C@@H]2C showed an MIC75 [1] of 5.4 µM (≈ 3.11 µg/mL), an MIC75 [2] of 5.4 µM (≈ 3.11 µg/mL) and an MIC75 [3] of 21.7 µM (≈ 12.5 µg/mL). For the same compound, the MIC75 [4] was 21.7 µM (≈ 12.5 µg/mL), the Activity [5] was “inactive” and the Activity [6] was “inactive”. For the same compound, the Activity [7] was “inactive”, the Activity [8] was “inactive” and the IC50 [9] was 23.9 µM. For the same compound, the IC50 [10] was 4.2 µM, the Activity [11] was “inactive” and the Activity [12] was “inactive”. For the same compound, the Activity [13] was “inactive”, the Activity [14] was “inactive” and the Activity [15] was “inactive”. The Activity [16] was “inactive”, the Activity [17] was “inactive” and the Activity [18] was “inactive”. For the same compound, the Activity [19] was “inactive”, the Activity [20] was “inactive” and the Activity [21] was “inactive”. The Activity [22] was “inactive”, the Activity [23] was “inactive” and the Activity [24] was “inactive”. The Activity [25] was “inactive”, the Activity [26] was “inactive” and the “Ratio IC50” value [27] was 3 - 11. For the same compound, the Activity [28] was “inactive”, the Activity [29] was “inactive” and the Activity [30] was “inactive”. For the same compound, the Activity [31] was “inactive”.

C[C@@H]1CC[C@]2(OC1)O[C@H]1C[C@H]3[C@@H]4CC[C@H]5C[C@@H](O)C[C@@H](O[C@@H]6O[C@H](C)[C@H](O)[C@H](O)[C@H]6O)[C@]5(C)[C@H]4CC[C@]3(C)[C@H]1[C@@H]2C gave an MIC75 [1] of 21.6 µM (≈ 12.5 µg/mL), an MIC75 [2] of 21.6 µM (≈ 12.5 µg/mL) and an MIC75 [3] of 21.6 µM (≈ 12.5 µg/mL). It also gave an MIC75 [4] of 21.6 µM (≈ 12.5 µg/mL), an MBC [32] of 21.6 µM (≈ 12.5 µg/mL) and an MBC [33] of 21.6 µM (≈ 12.5 µg/mL). For the same compound, the MBC [34] was 43.2 µM (≈ 25 µg/mL), the MBC [35] was 43.2 µM (≈ 25 µg/mL) and the IC50 [9] was 18.2 µM. For the same compound, the IC50 [10] was 4.3 µM, the Activity [11] was “inactive” and the Activity [12] was “inactive”. The Activity [13] was “inactive”, the Activity [14] was “inactive” and the Activity [15] was “inactive”. For the same compound, the Activity [16] was “inactive”, the Activity [17] was “inactive” and the Activity [18] was “inactive”. The Activity [19] was “inactive”, the Activity [20] was “inactive” and the Activity [21] was “inactive”. The Activity [22] was “inactive”, the Activity [23] was “inactive” and the Activity [24] was “inactive”. For the same compound, the Activity [25] was “inactive”, the Activity [26] was “inactive” and the “Ratio IC50” value [27] was 3 - 11.
